According to patent US9877980B2, “Method and composition for treatment or prevention of type 2 diabetes and hyperlipidemia” (Chun-Ching Shih, priority 2016, dated 2018):
Marks after values point to notes of the source that are not given here.

Key:
Type in all cases: in vivo
PPARα = assay: Semi-quantitative RT-PCR of liver mRNA: PPARα; details: HFD mice, 4 weeks, vs HF group
Experimental: (§1) The following experiment was performed and approved by the guidelines of the Institutional Animal Care and Use Committee of Central Taiwan University of Science and Technology. The 4-week old male C57BL/6J mice (total amount n=63) were purchased from the National Laboratory Animal Breeding and Research Center (Taipei, Taiwan). After acclimatization for one week, all of the mice were divided randomly into the control (CON) group and the high-fat diet (HFD) group. […] After HFD exposure for 8 weeks, the HFD group was further randomly subdivided into 6 groups (n=9 per group) to receive different treatments by oral gavage once daily for four weeks and on HFD. […] The HF+B1, HF+B2, and […] are collectively termed BB-treated HFD groups in the following examples. The CON mice were administered vehicle. After dosing for 4 weeks, the mice were given no food at night and sacrificed after 12 h of fasting on the next day. All of the individual tissues were collected and weighed, and portions were instantly frozen using liquid nitrogen and kept at −80° C. for subsequent target gene analysis. Blood samples (0.8 mL) were collected for analysis of blood parameters.
(§2) Total RNA from liver tissue of mice was isolated with a Trizol Reagent (Molecular Research Center, Inc., Cincinnati, Ohio, USA) according to the manufacturer's instructions. The integrity of the extracted total RNA was examined by 2% agarose gel electrophoresis, and the RNA concentration was determined by the ultraviolet (UV) light absorbency at 260 nm and 280 nm (Spectrophotometer U-2800A, Hitachi). The quality of the RNA was confirmed by ethidium bromide staining of 18S and 28S ribosomal RNA after electrophoresis on 2% agarose gel containing 6% formaldehyde.
(§3) Levels of mRNA of genes of interest were quantified by semi-quantitative reverse transcription polymerase chain reaction (RT-PCR). […] PCR products were analyzed by 2% agarose gels and stained with ethidium bromide.

GLUT4 = assay: Western blotting of membrane GLUT4 in skeletal muscle; details: HFD mice, 4 weeks, vs HF group
Experimental: as §1
The protein concentration in supernatant was determined with a BCA protein assay kit (Thermo Scientific, Rockford, Ill., USA). […] Immunoreactive bands were detected with ECL reagent kit (GE Healthcare BioSciences, Buckinghamshire, UK).

[1] = tested on: C57BL/6J mice on high-fat diet (HFD); assay: Hepatic lipids in HFD mice; details: 4 weeks
Experimental: The following experiment was performed and approved by the guidelines of the Institutional Animal Care and Use Committee of Central Taiwan University of Science and Technology. The 4-week old male C57BL/6J mice (total amount n=63) were purchased from the National Laboratory Animal Breeding and Research Center (Taipei, Taiwan). After acclimatization for one week, all of the mice were divided randomly into the control (CON) group and the high-fat diet (HFD) group. For the following 12 weeks, the CON group (n=9) was kept on a low-fat diet (Diet 12450B, Research Diets, Inc., New Brunswick, N.J., USA), while the HFD group (n=54) was exposed to a high-fat diet (Diet 12451, Research Diets, New Brunswick, N.J., USA). The low-fat diet was composed of protein 20%, carbohydrate 70% and fat 10%, whereas the high-fat diet was composed of protein 20%, carbohydrate 35%, and fat 45% (of total energy, % kcal). After HFD exposure for 8 weeks, the HFD group was further randomly subdivided into 6 groups (n=9 per group) to receive different treatments by oral gavage once daily for four weeks and on HFD. […] The HF+B1, HF+B2, and […] are collectively termed BB-treated HFD groups in the following examples. The CON mice were administered vehicle. After dosing for 4 weeks, the mice were given no food at night and sacrificed after 12 h of fasting on the next day. All of the individual tissues were collected and weighed, and portions were instantly frozen using liquid nitrogen and kept at −80° C. for subsequent target gene analysis. Blood samples (0.8 mL) were collected for analysis of blood parameters.
For hepatic lipid extraction, a 0.375 g liver samples were homogenized with 1 mL distill water for 5 minutes. The dried pellet was finally resuspended in 0.5 mL ethanol and analyzed using a triglycerides kit as used for analyzing the serum lipids set forth above.

G6Pase = assay: Semi-quantitative RT-PCR of liver mRNA: G6Pase; details: HFD mice, 4 weeks, vs HF group
Experimental: as §1, §2, §3

Compound: OCC1O[C@@H](O[C@@H]2Cc3c(O)cc(O)cc3O[C@@H]2c2ccc(O)c(O)c2)C(O)C(O)[C@@H]1O (single isomer, unassigned; (-)) [compound of formula I, (−)-epicatechin-3-O-β-D-allopyranoside]
- liver PPARα mRNA level (PPARα; 10 mg/kg/day oral gavage): enhanced
- liver PPARα mRNA level (PPARα; 20 mg/kg/day oral gavage): enhanced
- liver PPARα mRNA level (PPARα; 40 mg/kg/day oral gavage): enhanced
- protein level of GLUT4 at the plasma membrane (GLUT4; 10 mg/kg/day oral gavage): significantly enhanced
- protein level of GLUT4 at the plasma membrane (GLUT4; 20 mg/kg/day oral gavage): significantly enhanced
- protein level of GLUT4 at the plasma membrane (GLUT4; 40 mg/kg/day oral gavage): significantly enhanced
- Liver lipids Total lipid ([1]; 10 mg/kg/day oral gavage): 71.9 ± 6.5^d mg/g
- Liver lipids Triacylglycerol ([1]; 10 mg/kg/day oral gavage): 49.9 ± 8.0^d μmol/g
- Liver lipids Total lipid ([1]; 20 mg/kg/day oral gavage): 66.1 ± 6.9^e mg/g
- Liver lipids Triacylglycerol ([1]; 20 mg/kg/day oral gavage): 42.8 ± 6.5^f μmol/g
- Liver lipids Total lipid ([1]; 40 mg/kg/day oral gavage): 60.2 ± 5.2^f mg/g
- Liver lipids Triacylglycerol ([1]; 40 mg/kg/day oral gavage): 40.8 ± 4.6^f μmol/g
- liver mRNA level of G6Pase (G6Pase; 10 mg/kg/day oral gavage): significantly reduced
- liver mRNA level of G6Pase (G6Pase; 20 mg/kg/day oral gavage): significantly reduced
- liver mRNA level of G6Pase (G6Pase; 40 mg/kg/day oral gavage): significantly reduced
